# Reference: patent publication US20240116937A1, “Polymorph of (1S,2S,3S,5R)-3-((6-(difluoromethyl)-5-fluoro-1,2,3,4-tetrahydroisoquinolin-8-yl)oxy)-5-(4-methyl-7H-pyrrolo[2,3-D]pyrimidin-7-yl)cyclopentane-1,2-diol” (Pfizer Inc., priority 2020, published 2024)
# Assay: Hygroscopicity: % mass change (ref dry mass) versus RH, free base compared to hydrochloride salt
# Type: physicochemical
# Description: Hygroscopicity of Free Base (1S,2S,3S,5R)-3-((6-(difluoromethyl)-5-fluoro-1,2,3,4-tetrahydroisoquinolin-8-yl)oxy)-5-(4-methyl-7H-pyrrolo[2,3-d]pyrimidin-7-yl)cyclopentane-1,2-diol Compared to Crystalline (1S,2S,3S,5R)-3-((6-(difluoromethyl)-5-fluoro-1,2,3,4-tetrahydroisoquinolin-8-yl)oxy)-5-(4-methyl-7H-pyrrolo[2,3-d]pyrimidin-7-yl)cyclopentane-1,2-diol hydrochloride salt
smiles,measurement,setting,value
"Cc1ncnc2c1ccn2[C@@H]1C[C@H](Oc2cc(C(F)F)c(F)c3c2CNCC3)[C@@H](O)[C@H]1O [Free Base, (1S,2S,3S,5R)-3-((6-(difluoromethyl)-5-fluoro-1,2,3,4-tetrahydroisoquinolin-8-yl)oxy)-5-(4-methyl-7H-pyrrolo[2,3-d]pyrimidin-7-yl)cyclopentane-1,2-diol]",physical stability (hygroscopicity) relative to the dihydrochloride salt of WO2017/212385,,low hygroscopicity
same,% Mass-Ref Dry mass,RH 10,0.1%
same,% Mass-Ref Dry mass,RH 20,0.3%
same,% Mass-Ref Dry mass,RH 30,0.4%
same,% Mass-Ref Dry mass,RH 40,1.8%
same,% Mass-Ref Dry mass,RH 50,2.0%
same,% Mass-Ref Dry mass,RH 60,2.1%
same,% Mass-Ref Dry mass,RH 70,2.2%
same,% Mass-Ref Dry mass,RH 80,2.2%
same,% Mass-Ref Dry mass,RH 90,2.3%
